Assay results: the supplement of paper PMC12463676, “Small-molecule dissolution of stress granules by redox modulation benefits ALS models” (Nature Chemical Biology, 2025)

How the values were obtained:
lipoamide = compound: NC(=O)CCCCC1CCSS1 [lipoamide]; test: thermal stability z-score vs DMSO; higher = more thermally stabilized by treatment; settings: HeLa, lipoamide concentration 100 µM
Protocol: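 Cellular thermal proteome profiling in HeLa cells. Cells were treated with 100 µM lipoamide for 1 h, with or without 1 mM arsenate for a further 1 h, then heated to ten temperatures (37-66.3 °C), and soluble protein was quantified by TMT mass spectrometry relative to 0.1% DMSO controls. The thermal stability score (sum of log2 fold changes minus the abundance score) was transformed to a z-score; mean of n = 3 experiments.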

potassium arsenate = compound: O=[As]([O-])(O)O.[K+] [potassium arsenate]; test: as above; settings: HeLa; arsenate concentration 1 mM
Protocol: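 Cellular thermal proteome profiling in HeLa cells treated with 1 mM arsenate for 1 h (DMSO pretreatment), heated to ten temperatures (37-66.3 °C). Soluble protein was quantified by TMT mass spectrometry relative to DMSO controls; the thermal stability score was transformed to a z-score; mean of n = 3 experiments.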

[1] = arsenate co-treatment: 1 mM arsenate 1 h
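Note: each temperature applied for 3 min, abundance score taken as mean log2 fold change at the two lowest temperatures, z-score obtained by mean subtraction and division by SD.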

Chain of UniProt A2RU67 (A2RU67 whole entry): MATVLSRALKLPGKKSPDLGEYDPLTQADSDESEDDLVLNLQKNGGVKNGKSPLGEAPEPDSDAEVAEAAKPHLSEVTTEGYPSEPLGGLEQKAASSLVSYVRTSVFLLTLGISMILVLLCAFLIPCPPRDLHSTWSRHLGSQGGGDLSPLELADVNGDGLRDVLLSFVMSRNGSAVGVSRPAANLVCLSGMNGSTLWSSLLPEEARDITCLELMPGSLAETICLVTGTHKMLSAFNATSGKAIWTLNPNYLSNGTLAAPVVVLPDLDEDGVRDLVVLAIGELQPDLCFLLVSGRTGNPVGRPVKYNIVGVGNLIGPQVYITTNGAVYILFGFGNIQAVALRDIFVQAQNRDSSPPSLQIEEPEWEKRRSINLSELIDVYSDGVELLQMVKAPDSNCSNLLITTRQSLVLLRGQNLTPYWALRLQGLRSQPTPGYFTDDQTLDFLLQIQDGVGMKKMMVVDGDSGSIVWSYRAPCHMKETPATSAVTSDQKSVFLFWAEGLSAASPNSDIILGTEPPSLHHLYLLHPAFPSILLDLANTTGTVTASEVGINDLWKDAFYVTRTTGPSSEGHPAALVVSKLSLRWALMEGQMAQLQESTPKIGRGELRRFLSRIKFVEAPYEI
Chain of UniProt P84095 (P84095 whole entry): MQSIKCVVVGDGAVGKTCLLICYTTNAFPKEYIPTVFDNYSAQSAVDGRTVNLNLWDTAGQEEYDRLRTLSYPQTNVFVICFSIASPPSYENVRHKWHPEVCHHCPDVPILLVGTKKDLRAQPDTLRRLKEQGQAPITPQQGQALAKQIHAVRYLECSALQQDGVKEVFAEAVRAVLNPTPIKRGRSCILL
Chain of UniProt Q9NW82 (Q9NW82 whole entry): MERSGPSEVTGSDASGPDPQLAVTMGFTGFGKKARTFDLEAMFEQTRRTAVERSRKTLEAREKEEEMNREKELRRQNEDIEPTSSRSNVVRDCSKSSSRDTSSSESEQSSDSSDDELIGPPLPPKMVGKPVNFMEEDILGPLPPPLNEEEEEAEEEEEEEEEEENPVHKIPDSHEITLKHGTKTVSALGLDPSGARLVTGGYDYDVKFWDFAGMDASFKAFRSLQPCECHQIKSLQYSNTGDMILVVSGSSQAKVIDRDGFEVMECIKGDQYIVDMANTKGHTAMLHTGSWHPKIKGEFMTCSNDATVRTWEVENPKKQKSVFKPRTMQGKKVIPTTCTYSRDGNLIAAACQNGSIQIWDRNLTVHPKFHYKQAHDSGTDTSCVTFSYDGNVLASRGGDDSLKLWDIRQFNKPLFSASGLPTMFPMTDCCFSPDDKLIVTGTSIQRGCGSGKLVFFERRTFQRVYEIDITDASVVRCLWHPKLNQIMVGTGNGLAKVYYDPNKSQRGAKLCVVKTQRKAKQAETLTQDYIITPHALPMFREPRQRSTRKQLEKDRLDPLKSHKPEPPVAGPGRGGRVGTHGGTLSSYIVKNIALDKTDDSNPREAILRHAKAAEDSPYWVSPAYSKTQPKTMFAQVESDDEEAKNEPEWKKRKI
Chain of UniProt P20839 (P20839 whole entry, looked up): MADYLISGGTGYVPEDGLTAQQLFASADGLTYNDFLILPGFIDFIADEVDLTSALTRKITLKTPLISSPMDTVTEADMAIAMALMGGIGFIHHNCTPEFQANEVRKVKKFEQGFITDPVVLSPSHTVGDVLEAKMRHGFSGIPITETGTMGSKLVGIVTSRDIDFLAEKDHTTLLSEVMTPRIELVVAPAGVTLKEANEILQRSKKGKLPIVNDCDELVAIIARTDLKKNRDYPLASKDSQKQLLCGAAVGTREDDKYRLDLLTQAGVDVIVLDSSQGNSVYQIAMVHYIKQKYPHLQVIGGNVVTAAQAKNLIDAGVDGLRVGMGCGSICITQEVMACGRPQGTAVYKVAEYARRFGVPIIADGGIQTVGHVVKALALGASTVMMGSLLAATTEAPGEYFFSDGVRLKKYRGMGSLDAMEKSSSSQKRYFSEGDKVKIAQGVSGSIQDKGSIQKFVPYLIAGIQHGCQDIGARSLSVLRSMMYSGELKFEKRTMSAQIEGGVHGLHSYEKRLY
Chain of UniProt Q8N357 (Q8N357 whole entry): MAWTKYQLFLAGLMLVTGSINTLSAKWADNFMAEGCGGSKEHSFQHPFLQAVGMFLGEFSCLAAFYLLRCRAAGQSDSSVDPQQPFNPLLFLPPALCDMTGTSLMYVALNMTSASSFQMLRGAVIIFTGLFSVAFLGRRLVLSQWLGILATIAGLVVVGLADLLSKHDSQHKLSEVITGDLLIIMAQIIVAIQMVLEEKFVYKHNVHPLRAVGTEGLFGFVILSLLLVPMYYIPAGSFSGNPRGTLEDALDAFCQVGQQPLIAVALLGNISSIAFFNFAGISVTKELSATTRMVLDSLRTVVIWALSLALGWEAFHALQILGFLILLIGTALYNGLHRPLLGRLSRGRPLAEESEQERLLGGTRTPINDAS
Chain of UniProt Q7L592 (Q7L592 whole entry): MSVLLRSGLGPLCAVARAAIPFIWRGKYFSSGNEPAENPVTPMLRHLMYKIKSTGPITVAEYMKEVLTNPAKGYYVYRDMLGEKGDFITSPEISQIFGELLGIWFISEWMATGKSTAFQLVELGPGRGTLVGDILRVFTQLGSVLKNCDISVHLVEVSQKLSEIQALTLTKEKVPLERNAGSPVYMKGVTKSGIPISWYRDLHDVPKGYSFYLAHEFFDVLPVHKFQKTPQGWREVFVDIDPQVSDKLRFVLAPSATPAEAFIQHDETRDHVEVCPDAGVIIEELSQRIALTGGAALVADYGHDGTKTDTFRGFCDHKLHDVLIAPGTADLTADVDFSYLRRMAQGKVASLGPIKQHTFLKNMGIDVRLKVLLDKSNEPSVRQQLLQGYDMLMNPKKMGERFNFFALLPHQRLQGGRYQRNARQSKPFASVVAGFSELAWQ
Chain of UniProt Q8WUX9 (Q8WUX9 whole entry): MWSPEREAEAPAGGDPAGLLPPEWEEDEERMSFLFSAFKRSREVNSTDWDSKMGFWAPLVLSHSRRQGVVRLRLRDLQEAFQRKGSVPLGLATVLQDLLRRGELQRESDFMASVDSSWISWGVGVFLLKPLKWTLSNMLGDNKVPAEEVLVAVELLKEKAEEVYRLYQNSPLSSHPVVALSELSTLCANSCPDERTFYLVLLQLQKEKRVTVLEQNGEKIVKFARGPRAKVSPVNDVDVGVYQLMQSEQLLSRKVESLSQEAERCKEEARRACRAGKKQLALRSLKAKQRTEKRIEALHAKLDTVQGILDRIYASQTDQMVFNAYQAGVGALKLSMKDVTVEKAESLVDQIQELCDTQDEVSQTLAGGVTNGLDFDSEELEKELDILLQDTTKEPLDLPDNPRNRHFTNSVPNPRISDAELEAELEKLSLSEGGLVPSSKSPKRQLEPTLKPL
Chain of UniProt O95373 (O95373 whole entry): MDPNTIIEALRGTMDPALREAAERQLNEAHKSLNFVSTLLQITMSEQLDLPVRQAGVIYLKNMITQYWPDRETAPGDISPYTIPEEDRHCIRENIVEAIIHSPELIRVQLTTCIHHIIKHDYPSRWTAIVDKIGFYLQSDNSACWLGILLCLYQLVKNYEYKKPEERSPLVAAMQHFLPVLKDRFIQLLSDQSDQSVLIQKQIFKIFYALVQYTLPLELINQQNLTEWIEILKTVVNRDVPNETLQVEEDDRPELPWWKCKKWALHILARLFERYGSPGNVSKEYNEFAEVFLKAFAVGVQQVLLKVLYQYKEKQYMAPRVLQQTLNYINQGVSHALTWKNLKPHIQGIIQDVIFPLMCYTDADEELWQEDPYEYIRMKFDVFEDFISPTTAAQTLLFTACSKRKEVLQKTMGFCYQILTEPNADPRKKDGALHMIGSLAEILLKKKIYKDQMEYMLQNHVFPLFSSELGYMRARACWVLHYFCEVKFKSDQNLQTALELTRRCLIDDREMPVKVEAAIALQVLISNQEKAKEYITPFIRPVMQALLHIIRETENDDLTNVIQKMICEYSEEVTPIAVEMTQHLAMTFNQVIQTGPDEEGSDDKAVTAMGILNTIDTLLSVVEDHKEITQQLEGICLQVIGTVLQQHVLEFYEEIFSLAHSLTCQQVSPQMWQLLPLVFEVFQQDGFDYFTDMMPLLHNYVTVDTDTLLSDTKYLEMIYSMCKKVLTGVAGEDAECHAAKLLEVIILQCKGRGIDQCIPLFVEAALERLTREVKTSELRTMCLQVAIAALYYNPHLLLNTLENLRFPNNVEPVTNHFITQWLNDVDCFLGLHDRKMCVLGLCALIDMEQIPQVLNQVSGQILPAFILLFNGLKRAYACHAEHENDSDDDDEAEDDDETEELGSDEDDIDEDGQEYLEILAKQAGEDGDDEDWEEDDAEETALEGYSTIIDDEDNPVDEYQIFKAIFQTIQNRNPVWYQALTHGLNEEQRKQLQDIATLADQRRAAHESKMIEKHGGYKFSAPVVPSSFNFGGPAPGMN
Chain of UniProt P35613 (P35613 whole entry): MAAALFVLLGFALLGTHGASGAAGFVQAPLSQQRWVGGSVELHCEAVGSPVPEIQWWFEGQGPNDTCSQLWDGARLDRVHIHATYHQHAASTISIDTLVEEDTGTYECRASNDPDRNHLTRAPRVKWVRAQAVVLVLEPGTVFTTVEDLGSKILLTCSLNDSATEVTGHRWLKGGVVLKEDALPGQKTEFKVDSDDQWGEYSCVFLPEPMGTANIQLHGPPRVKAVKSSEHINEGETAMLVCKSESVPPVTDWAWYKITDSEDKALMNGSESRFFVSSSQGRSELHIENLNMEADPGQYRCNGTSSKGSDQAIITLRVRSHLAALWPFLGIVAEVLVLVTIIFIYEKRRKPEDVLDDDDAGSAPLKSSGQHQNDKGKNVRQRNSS
Chain of UniProt O00161 (O00161 whole entry): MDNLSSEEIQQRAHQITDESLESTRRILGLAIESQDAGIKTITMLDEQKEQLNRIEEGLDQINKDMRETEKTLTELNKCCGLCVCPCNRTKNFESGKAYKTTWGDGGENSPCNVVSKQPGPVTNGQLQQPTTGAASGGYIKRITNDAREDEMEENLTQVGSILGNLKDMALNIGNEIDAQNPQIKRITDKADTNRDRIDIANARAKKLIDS

Row | Target | thermal stability z-score (lipoamide; [1]) | thermal stability z-score (lipoamide; arsenate co-treatment: none) | thermal stability z-score (potassium arsenate)
1 | RPS7 (UniProt P62081) | 0.514 | 0.322 | -0.493
2 | HNRNPUL2 (UniProt Q1KMD3) | 0.105 | 0.057 | -0.392
3 | C6ORF106 (UniProt Q9H6K1) | -0.69 | -0.401 | 0.242
4 | RHOG (UniProt P84095) | 0.489 | 0.491 | 0.00682
5 | PRPF39 (UniProt Q86UA1) | -0.0835 | -0.137 | -0.0696
6 | NDUFAF7 (UniProt Q7L592) | -0.486 | -0.171 | 0.288
7 | TSPO | -0.334 | 0.17 | 0.892
8 | SEC62 (UniProt Q99442) | 0.39 | 0.266 | -0.75
9 | ALDH4A1 (UniProt P30038) | -0.59 | -0.14 | 1.19
10 | CHMP7 (UniProt Q8WUX9) | -0.517 | -0.865 | -0.0641
11 | STK26 (UniProt Q9P289) | 0.681 | 1.24 | 1.4
12 | BSG (UniProt P35613) | 0.714 | 0.573 | 0.265
13 | HMGN2 (UniProt P05204) | 1.04 | 0.752 | 0.0894
14 | TRMT1 (UniProt Q9NXH9) | 0.222 | -0.116 | -0.423
15 | FAM234B (UniProt A2RU67) | -0.257 | -0.241 | -0.192
16 | WDR70 (UniProt Q9NW82) | 0.397 | 0.0128 | -0.891
17 | SNAP23 (UniProt O00161) | 0.994 | 1.06 | -0.16
18 | IPO7 (UniProt O95373) | 2.63 | 0.4 | -0.418

Row | Target | thermal stability z-score (lipoamide; [1]) | thermal stability z-score (lipoamide; arsenate co-treatment: none) | thermal stability z-score (potassium arsenate)
19 | IKBKAP (UniProt O95163) | -0.193 | -0.141 | -0.261
20 | IKBKG (UniProt Q9Y6K9) | -0.275 | -0.162 | -0.992
21 | PRPF40A (UniProt O75400) | -0.0187 | 0.00497 | 0.00775
22 | SLC35F6 (UniProt Q8N357) | -0.707 | -0.328 | -0.279
23 | PON2 (UniProt Q15165) | -4.17 | -3.42 | 0.478
24 | MRPL37 (UniProt Q9BZE1) | -0.398 | -0.403 | -0.0807
25 | MTMR12 (UniProt Q9C0I1) | 0.611 | -0.0556 | -0.0618
26 | CNOT3 (UniProt O75175) | -0.0612 | 0.0363 | 1.26
27 | MICALL2 (UniProt Q8IY33) | -0.157 | 0.00775 | -0.0438
28 | UniProt F8W031 | -3.73 | -2.58 | 0.325
29 | RIOK1 (UniProt Q9BRS2) | -0.529 | -0.513 | -1.27
30 | IMPDH1 (UniProt P20839) | -0.546 | -0.319 | 1.28
31 | PLRG1 (UniProt O43660) | 1.67 | -0.0202 | -0.346
32 | TPR (UniProt P12270) | 2.13 | 1.1 | -2.19
33 | RIPK1 (UniProt Q13546) | -0.595 | -1.03 | 0.39
34 | PFDN1 (UniProt O60925) | 1.42 | 1.53 | 0.744
35 | PICALM (UniProt Q13492) | 0.107 | -0.16 | -0.0231
36 | SEC22B (UniProt O75396) | -0.614 | -0.0571 | -0.0449
